Experimental data from patent US20260216347A1, “Substituted Imidazo-Based Compounds as Ligand Directed Degraders of IRAK3” (Celgene Corporation, priority 2022, published 2026).

Columns and labels:
[1] = target: T1, IRAK3 (Homo sapiens, UniProt Q9Y616); experiment: IRAK endogenous HTRF degradation assay (Total-IRAK3 HTRF kit); assay type: cell-based; conditions: overnight incubation, lowest percentage of protein remaining
T1 construct: IRAK Endogenous HTRF Degradation Assay; endogenous in cells
T1 sequence (Q9Y616 1-596): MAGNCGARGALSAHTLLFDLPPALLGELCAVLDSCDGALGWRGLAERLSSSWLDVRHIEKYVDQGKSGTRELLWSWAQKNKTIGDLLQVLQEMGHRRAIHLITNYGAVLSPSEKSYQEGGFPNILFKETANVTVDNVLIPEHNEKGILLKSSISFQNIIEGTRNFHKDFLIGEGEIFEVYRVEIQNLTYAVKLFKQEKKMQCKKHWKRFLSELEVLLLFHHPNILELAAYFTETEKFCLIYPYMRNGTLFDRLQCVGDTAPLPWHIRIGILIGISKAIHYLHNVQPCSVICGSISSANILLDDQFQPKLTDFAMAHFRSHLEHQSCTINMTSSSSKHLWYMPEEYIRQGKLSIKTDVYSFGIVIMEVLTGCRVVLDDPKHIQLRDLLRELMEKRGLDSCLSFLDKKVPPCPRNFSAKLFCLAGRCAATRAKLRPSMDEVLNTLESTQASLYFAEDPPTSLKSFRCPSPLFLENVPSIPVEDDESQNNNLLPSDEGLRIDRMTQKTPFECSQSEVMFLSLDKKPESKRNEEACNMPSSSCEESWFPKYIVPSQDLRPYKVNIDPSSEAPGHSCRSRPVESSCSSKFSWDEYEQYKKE
Description: Example B2. IRAK Endogenous HTRF Degradation Assay
Cells (~50 k) were plated in Cisbio 96-well low volume white plates (Cisbio: cat #66PL96005). Compounds were dissolved in DMSO and a 3-fold serial dilution was performed using a TECAN D300E. Cells were incubated with the compound overnight. Total-IRAK3 HTRF kit from Cisbio was used for degradation analysis (Cisbio: 63ADK101PEH). Cryptate and D2 antibodies were diluted in Detection buffer as per manufacturers recommendation. Then 2 μL of each solution was added to 16 μL lysate. Buffer control (lysis buffer detection buffer), Cryptate control (lysis buffer+cryptate antibody+detection buffer), and Negative control (lysis buffer+cryptate antibody+D2 antibody) were made as per manufacturers recommendation. Post incubation with antibodies the HTRF signal was measured using a Perkin Elmer Envision reader and the HTRF signal was calculated using formula: (Emission at 665 nm/Emission at 615 nm)*10,000. All HTRF values were normalized to the average value of DMSO. The average value of the DMSO control wells were set to equal 100% of the relative IRAK3 protein levels. Normalized luminescence values were plotted on a graph as a function of compound concentration. Compound concentration was plotted on the x-axis and the corresponding normalized IRAK3 protein levels on the y-axis. The EC50 value (the half-maximum effective concentration) of a compound for the degradation of the IRAK3 was calculated using a four-parameter logistic model (sigmoidal dose-response model) (FIT=(A+{(B−A)/1+[(C/x)D]})) where C is the inflection point (EC50), D is the […], and A and B are the low and high limits of the fit, respectively). The Ymin was calculated by determining the lowest percentage of target protein remaining following compound treatment. Dmax was calculated from Ymin (% Dmax=100−Ymin).
Using these assays, IC50, Dmax, EC50, and DC50 values of the following compounds were determined. Dmax is defined as the maximum percent degradation achieved and DC50 is the concentration at which 50% degradation is achieved.

[2] = target: T2, IRAK3-ePL (Homo sapiens, UniProt Q9Y616); experiment: IRAK3-ePL overexpressing degradation assay (InCELL Hunter luminescence, dose response); assay type: cell-based; conditions: for IRAK3 ePL degradation Ymin: lowest percentage of target protein remaining following compound treatment; for DC50: read-out: IRAK3 ePL degradation EC50
T2 construct: expressed in transfected cells; host or cells: 293T CRBN OE/GSPT1 G575N KI cells, lentiviral transduction, puromycin selected
Description: Example B1. IRAK3-ePL Overexpressing Degradation Assay
Stable cell lines were generated by the following protocol. 3×10^5 Lenti-X 293T cells (Clonetech) were plated in 0.8 mL of media in a 12-well plate and incubated overnight at 37° C./5% CO2. Packaging plasmid (0.4 μg, pMD), envelope plasmid (0.4 μg, pSP), and lentiviral transfer IRAK3-ePL plasmid (0.8 μg, TRAK3 sequence NM_007199.3) were mixed in 0.1 mL of Opti-MEM and incubated for 5 min. Simultaneously, 2.4 μL of Lipofectamine 2000 (Invitrogen) was added to 0.1 mL of Opti-MEM (Gibco) and incubated for 5 min. The plasmid DNA and lipofectamine were combined and the mixture was allowed to incubate for 20 min.DNA:Lipofectamine Opti-MEM mixtures were then added to previously plated cells dropwise and the cells were incubated for ~16 h at 37° C./5% CO2. Following incubation, the media was removed and 1.2 mL of fresh media was added per well. Lenti-X 293T cells were incubated for ~30 h at 37° C./5% CO2. […] Following incubation, media was removed from the Lenti-X 293T wells and passed through a […] filter. Part of the viral supernatant was used to transduce cells and the rest was stored at −80° C. Viruses were then added individually (0.5 mL virus) to each well of the 293T^CRBN OE/GSPT1 G575N KI cells, followed by addition of polybrene (10 mg/mL Millipore) to each well at a final concentration of 5.0 μg/mL. Cells were incubated for ~24 h at 37° C./5% CO2. After aspirating media off plates, cells were washed with DPBS, trypsinized and plated in a 10 cm dish in 15 mL of media and […] puromycin. Following incubation of cells for ~72 h at 37° C./5% CO2, media was aspirated off plates, and cells were washed with DPBS and trypsinized. The cells were plated in a 15 cm dish in 40 mL of media with 1.0 μg/mL Puromycin (Gibco) and incubated for ~72 h at 37° C./5% CO2. Following incubation, media was removed and cells were washed with DPBS and trypsinized. The majority of cells were resuspended in Invitrogen freezing media and stored away (~6-8×10^6 cells/vial).
IRAK3-ePL cellular dose response curve degradation assays were performed by the following protocol. Compounds to be tested were dispensed into a white 384-well tissue-culture treated plate using an acoustic liquid handler. Dilutions were prepared based on a 25 μL assay volume in duplicate 10 point 3-fold serial dilutions starting with a 10 μM dose. Negative control wells were included, which only contain 0.2% DMSO to calculate 100% signal. Positive control wells containing 30 μM Ataluren (luciferase inhibitor) were included to calculate the background signal level. All wells were backfilled to a final DMSO concentration of 0.2% to ensure DMSO uniformity across wells. IRAK3-ePL expressing cells (IRAK3-ePL Lenti-X 293T^CRBN/GSPT1 G575N) were washed, trypsinized, counted, and resuspended in fresh DMEM (Gibco) to give a cell concentration of 200,000 cells/mL. 25 μL of cells (5,000 cells/well) were dispensed into the wells of the 384-well plate prespotted with compounds in the previous step and incubated overnight at 37° C./5% CO2. Following incubation, the 384-well plate was taken out of the incubator and left at room temperature for 30 min. InCELL hunter reagent was prepared according to manufacturer's instructions (EA reagent, lysis buffer, and substrate reagent in a 1:1:4 ratio, Cat #96-0002, DiscoverX), which was added to the 384-well plate 25 μL per well. Following the incubation of the plate for 1 h at room temperature, the luminescence signal was read using a ViewLux plate reader. Data was processed and analyzed in ActivityBase software. In short, the average luminescence values of the positive control wells were subtracted from the rest of the wells for background correction, and all luminescence values were normalized to the DMSO control wells. The average value of the DMSO control wells was set to equal 100% of the relative IRAK3-ePL protein levels. […]

SMILES | IRAK3 HTRF degradation Ymin [1] | IRAK3 ePL degradation Ymin [2] | DC50 [2]
Cc1cc(-c2cnc(Nc3cnn(C4CCN(C(=O)CN5CCN(c6ccc(C7CCC(=O)NC7=O)cc6)CC5)CC4)c3)c3nccn23)c(F)cc1F (stereo not shown) [Compound 23, 3-(4-(4-(2-(4-(4-((5-(2,4-difluoro-5-methylphenyl)imidazo[1,2-a]pyrazin-8-yl)amino)-1H-pyrazol-1-yl)piperidin-1-yl)-2-oxoethyl)piperazin-1-yl)phenyl)piperidine-2,6-dione] | 17% |  | 
Cc1cc(-c2cnc(Nc3cnn([C@@H]4CCN(CCN5CCN(c6ccc(C7CCC(=O)NC7=O)cc6)C[C@H]5C)[C@H](C)C4)c3)c3nccn23)c(F)cc1F (stereo partly drawn) [Compound 29, 3-(4-((R)-4-(2-((2R,4R)-4-(4-((5-(2,4-difluoro-5-methylphenyl)imdazo [1,2-a]pyrazin-8-yl)amino)-1H-pyrazol-1-yl)-2-methylpiperidin-1-yl)ethyl)-3-methylpiperazin-1-yl)phenyl) piperidine-2,6-dione] | 14% | 24% | 0.51 nM
Cc1cc(-c2cnc(Nc3cnn([C@@H]4CCN(CCN5CCN(c6ccc(C7CCC(=O)NC7=O)cc6)CC5)[C@H](C)C4)c3)c3nccn23)c(F)cc1F (stereo partly drawn) [Compound 30, 3-(4-(4-(2-((2R,4R)-4-(4-((5-(2,4-difluoro-5-methylphenyl)imdazo [1,2-a]pyrazin-8-yl)amino)-1H-pyrazol-1-yl)-2-methylpiperidin-1-yl)ethyl)piperazin-1-yl)phenyl) piperidine-2,6-dione] | 14% | 24% | 0.51 nM
Cc1ccc(F)c(-c2cnc(Nc3cnn(C4CCN(CCN5CCN(c6ccc(C7CCC(=O)NC7=O)cc6)CC5)CC4)c3)c3nccn23)c1 (stereo not shown) [Compound 36, 3-(4-(4-(2-(4-(4-((5-(2-fluoro-5-methylphenyl)imdazo [1,2-a]pyrazin-8-yl)amino)-1H-pyrazol-1-yl)piperidin-1-yl)ethyl)piperazin-1-yl)phenyl) piperidine-2,6-dione] | 9.8% | 24% | 1.1 nM
Cc1cc(-c2cnc(Nc3cnn([C@H]4CC[C@H](CCN5CCN(c6ccc(C7CCC(=O)NC7=O)cc6)C[C@H]5C)CC4)c3)c3nccn23)c(F)cc1F (stereo partly drawn) [Compound 37, 3-(4-((R)-4-(2-((trans)-4-(4-((5-(2,4-difluoro-5-methylphenyl)imidazo[1,2-a]pyrazin-8-yl)amino)-1H-pyrazol-1-yl)cyclohexyl)ethyl)-3-methylpiperazin-1-yl)phenyl) piperidine-2,6-dione] | 10% | 20% | 3.8 nM
C[C@H]1CN(c2ccc(C3CCC(=O)NC3=O)cc2)CCN1CCN1CCC(n2cc(Nc3ncc(C4CC4)n4ccnc34)cn2)CC1 (stereo partly drawn) [Compound 38, 3-(4-((S)-4-(2-(4-(4-((5-cyclopropylimidazo[1,2-a]pyrazin-8-yl)amino)-1H-pyrazol-1-yl)piperidin-1-yl)ethyl)-3-methylpiperazin-1-yl)phenyl) piperidine-2,6-dione] | 9.1% | 25% | 0.51 nM
Cc1cc(-c2cnc(Nc3cnn(C4CCN(CCN5CCN(c6ccc7c(C8CCC(=O)NC8=O)nn(C)c7c6)CC5)CC4)c3)c3nccn23)c(F)cc1F (stereo not shown) [Compound 39, 3-(6-(4-(2-(4-(4-((5-(2,4-difluoro-5-methylphenyl)imdazo [1,2-a]pyrazin-8-yl)amino)-1H-pyrazol-1-yl)piperidin-1-yl)ethyl)piperazin-1-yl)-1-methyl-1H-indazol-3-yl)piperidine-2,6-dione] | 14. % | 32% | 0.51 nM
CN1CCOc2ccc(-c3cnc(Nc4cnn([C@H]5CC[C@H](CCN6CCN(c7ccc(C8CCC(=O)NC8=O)cc7)CC6)CC5)c4)c4nccn34)cc21 (stereo partly shown) [Compound 40] | 8.5% | 24% | 1.5 nM
Cc1cc(-c2cnc(Nc3cnn(C4CCN(CCN5CCN(c6cccc7c(C8CCC(=O)NC8=O)nn(C)c67)CC5)CC4)c3)c3nccn23)c(F)cc1F (stereo not shown) [Compound 41, 3-(7-(4-(2-(4-(4-((5-(2,4-difluoro-5-methylphenyl)imdazo [1,2-a]pyrazin-8-yl)amino)-1H-pyrazol-1-yl)piperidin-1-yl)ethyl)piperazin-1-yl)-1-methyl-1H-indazol-3-yl)piperidine-2,6-dione] | 8.7% | 25% | 0.68 nM
COc1cc(C2CCC(=O)NC2=O)ccc1N1CCN(CCN2CCC(n3cc(Nc4ncc(-c5cc(C)c(F)cc5F)n5ccnc45)cn3)CC2)CC1 (stereo not shown) [Compound 42, 3-(4-(4-(2-(4-(4-((5-(2,4-difluoro-5-methylphenyl)imdazo [1,2-a]pyrazin-8-yl)amino)-1H-pyrazol-1-yl)piperidin-1-yl)ethyl)piperazin-1-yl)-3-methoxyphenyl) piperidine-2,6-dione] | 9.8% | 23% | 0.51 nM
